The results in this text go back to ChEMBL document CHEMBL3045439, “Isoforms of the heteropteran Nezara viridula ecdysone receptor: protein characterisation, RH5992 insecticide binding and homology modelling” (Pest Manag Sci, 2011).

Holding throughout (type): protein-complex assay
Test [1] addresses T1, Ecdysone receptor (Nezara viridula, UniProt E5L6Y0+E5L6Y1).
T1 sequence (E5L6Y1 whole entry): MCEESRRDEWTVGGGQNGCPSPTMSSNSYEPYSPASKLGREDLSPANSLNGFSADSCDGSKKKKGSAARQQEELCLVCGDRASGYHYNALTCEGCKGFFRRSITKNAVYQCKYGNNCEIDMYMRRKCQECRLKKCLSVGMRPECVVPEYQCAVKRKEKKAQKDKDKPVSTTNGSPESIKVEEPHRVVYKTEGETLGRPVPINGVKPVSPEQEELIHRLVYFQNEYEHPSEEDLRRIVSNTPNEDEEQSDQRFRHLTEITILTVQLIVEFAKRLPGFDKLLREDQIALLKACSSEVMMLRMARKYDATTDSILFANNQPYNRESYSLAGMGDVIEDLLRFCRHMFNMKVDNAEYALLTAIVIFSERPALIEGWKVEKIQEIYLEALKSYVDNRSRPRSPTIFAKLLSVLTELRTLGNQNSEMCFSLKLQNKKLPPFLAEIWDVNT
T1 sequence (E5L6Y0 whole entry): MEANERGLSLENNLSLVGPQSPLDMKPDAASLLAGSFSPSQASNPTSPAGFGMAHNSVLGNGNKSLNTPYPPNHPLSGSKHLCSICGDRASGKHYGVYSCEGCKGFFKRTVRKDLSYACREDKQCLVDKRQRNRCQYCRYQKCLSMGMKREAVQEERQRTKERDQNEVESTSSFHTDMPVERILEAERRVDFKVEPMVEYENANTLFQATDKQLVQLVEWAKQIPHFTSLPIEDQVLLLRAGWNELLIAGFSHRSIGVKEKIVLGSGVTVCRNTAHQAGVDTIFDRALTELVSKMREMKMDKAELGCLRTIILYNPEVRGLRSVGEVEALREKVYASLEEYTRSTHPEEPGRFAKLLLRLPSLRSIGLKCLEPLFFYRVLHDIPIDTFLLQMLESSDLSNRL
The test can be described thus: Displacement of [3H]PonA from recombinant Nezara viridula EcR11.

For test [2], the target named is T1, Ecdysone receptor. Briefly: Displacement of [3H]PonA from recombinant Nezara viridula EcR10.
Test [3] deals with T2, Ecdysone receptor (Myzus persicae, UniProt A3EZJ9+A3EZK0).
T2 sequence (A3EZJ9 whole entry): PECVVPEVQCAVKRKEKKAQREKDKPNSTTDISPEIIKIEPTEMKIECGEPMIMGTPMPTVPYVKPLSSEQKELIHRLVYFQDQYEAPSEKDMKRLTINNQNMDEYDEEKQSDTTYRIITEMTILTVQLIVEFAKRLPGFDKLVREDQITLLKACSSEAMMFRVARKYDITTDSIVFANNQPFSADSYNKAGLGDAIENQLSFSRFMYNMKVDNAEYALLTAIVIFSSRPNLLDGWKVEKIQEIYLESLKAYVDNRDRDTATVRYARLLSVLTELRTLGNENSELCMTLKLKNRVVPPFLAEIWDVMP
T2 sequence (A3EZK0 whole entry): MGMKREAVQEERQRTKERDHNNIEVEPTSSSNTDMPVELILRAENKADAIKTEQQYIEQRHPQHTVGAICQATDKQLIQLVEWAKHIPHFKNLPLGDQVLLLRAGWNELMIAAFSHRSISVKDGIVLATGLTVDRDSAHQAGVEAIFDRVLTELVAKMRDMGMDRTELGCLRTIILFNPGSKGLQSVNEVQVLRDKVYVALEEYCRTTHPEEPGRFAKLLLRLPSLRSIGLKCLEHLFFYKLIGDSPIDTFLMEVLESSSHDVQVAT
Briefly: Binding affinity to Myzus persicae EcR (green peach aphid).

Test [4] addresses T3, Ecdysone receptor (Chironomus tentans, UniProt O45117+P49882).
T3 sequence (P49882 whole entry): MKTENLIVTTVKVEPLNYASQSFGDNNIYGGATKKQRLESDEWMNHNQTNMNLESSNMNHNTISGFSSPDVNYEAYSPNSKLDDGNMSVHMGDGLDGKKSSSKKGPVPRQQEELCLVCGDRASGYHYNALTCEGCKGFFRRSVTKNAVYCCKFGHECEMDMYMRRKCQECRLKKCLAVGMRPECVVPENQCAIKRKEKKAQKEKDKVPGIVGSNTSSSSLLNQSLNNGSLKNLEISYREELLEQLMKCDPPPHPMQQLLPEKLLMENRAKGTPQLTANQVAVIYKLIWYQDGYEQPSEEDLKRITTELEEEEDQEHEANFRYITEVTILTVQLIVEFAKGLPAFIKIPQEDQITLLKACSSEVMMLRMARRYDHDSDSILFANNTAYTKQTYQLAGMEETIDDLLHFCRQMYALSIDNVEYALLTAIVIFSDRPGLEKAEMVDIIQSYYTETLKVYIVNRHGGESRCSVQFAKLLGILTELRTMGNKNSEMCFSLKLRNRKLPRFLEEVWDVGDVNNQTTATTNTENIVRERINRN
T3 sequence (O45117 whole entry): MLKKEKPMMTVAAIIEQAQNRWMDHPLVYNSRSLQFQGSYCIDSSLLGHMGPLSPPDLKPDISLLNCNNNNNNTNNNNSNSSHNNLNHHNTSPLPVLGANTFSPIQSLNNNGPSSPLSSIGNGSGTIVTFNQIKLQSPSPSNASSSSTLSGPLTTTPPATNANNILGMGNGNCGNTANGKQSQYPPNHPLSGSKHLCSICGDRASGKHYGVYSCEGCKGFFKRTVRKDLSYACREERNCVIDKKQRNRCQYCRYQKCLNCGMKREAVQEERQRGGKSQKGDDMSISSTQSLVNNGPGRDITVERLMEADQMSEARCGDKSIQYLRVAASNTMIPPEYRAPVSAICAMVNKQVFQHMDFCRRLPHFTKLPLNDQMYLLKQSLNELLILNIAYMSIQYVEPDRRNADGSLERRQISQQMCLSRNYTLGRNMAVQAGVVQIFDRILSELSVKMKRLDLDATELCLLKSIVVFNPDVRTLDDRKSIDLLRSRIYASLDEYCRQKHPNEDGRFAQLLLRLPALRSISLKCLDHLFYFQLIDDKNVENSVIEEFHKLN
Briefly: Binding affinity to Chironomus tentans EcR.

In test [5] the target is Ecdysone receptor (Bemisia tabaci, UniProt A3EZJ4+A3EZJ5). The test can be described thus: Binding affinity to Bemisia tabaci (sweet potato whitefly) ecdysone receptor (EcR).
Sequence of Ecdysone receptor (Bemisia tabaci, UniProt A3EZJ4+A3EZJ5) (A3EZJ4 1-297): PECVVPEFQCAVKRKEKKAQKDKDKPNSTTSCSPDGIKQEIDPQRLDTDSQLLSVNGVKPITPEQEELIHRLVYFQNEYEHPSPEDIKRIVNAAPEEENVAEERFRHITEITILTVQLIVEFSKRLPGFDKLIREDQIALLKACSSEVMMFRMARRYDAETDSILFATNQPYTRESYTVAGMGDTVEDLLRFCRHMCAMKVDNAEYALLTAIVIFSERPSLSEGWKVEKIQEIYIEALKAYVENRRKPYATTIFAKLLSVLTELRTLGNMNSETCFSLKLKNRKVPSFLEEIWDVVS
Sequence of Ecdysone receptor (Bemisia tabaci, UniProt A3EZJ4+A3EZJ5) (A3EZJ5 1-251): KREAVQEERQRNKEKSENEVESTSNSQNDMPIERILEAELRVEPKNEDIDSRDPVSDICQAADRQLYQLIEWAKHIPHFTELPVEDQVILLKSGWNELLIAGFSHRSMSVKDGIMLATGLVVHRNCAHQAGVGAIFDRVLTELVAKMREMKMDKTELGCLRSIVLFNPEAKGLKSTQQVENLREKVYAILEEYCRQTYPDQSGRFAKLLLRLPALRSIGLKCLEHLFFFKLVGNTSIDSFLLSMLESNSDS

On to `CC(C)(O)CC[C@@H](O)[C@](C)(O)[C@H]1CC[C@@]2(O)C3=CC(=O)[C@@H]4C[C@@H](O)[C@@H](O)C[C@]4(C)[C@H]3CC[C@]12C` [20-HYDROXYECDYSONE], for which the IC50 at Ecdysone receptor [1] turned out to be 4.5 µM; at Ecdysone receptor [2] it was 3 µM. The Ki came out at 3 µM on Ecdysone receptor [1] and 2.5 µM at Ecdysone receptor [2].
On to `CCc1ccc(C(=O)NN(C(=O)c2cc(C)cc(C)c2)C(C)(C)C)cc1` [TEBUFENOZIDE], for which the Ki on Ecdysone receptor [3] is greater than 126 µM; on Ecdysone receptor [1], 23.9 µM; on Ecdysone receptor [4], 0.01 µM; at Ecdysone receptor [2], 16.8 µM; on Ecdysone receptor [5] it was greater than 501 µM. Besides, the IC50 at Ecdysone receptor [1] turned out to be 28 µM; on Ecdysone receptor [2], 20 µM.

Usually IC50 stands for the concentration that gives 50% inhibition. The term Ki denotes a measure of affinity in units of concentration, obtained from inhibition or displacement.
